Earlier results on one compound are cited in article PMC7887855 (ACS Pharmacology & Translational Science, 2020).

Each structure is given as a SMILES string.

For the data set, the system named is Mtb. Conditions: multiple daily IP injections, mice.

Take `C=Cc1c2[n-]c(c1C)/C=c1\[n-]/c(c(C)c1C=C)=C\c1[n-]c(c(CCC(=O)O)c1C)C=c1[n-]/c(c(C)c1CCC(=O)O)=C\2.[Sn+4]` [SnPPIX, tin protoporphyrin IX]: the “effect on mycobacterial load as monotherapy” value is reported as “significantly decrease mycobacterial load” and the “effect on treatment time in combination with conventional TB antibiotics” value is recorded as “reduced treatment time by over one month”.
